Assay results taken from PMC2034084, “Pharmacokinetics and binding of the bioreductive probe for hypoxia, NITP: effect of route of administration” (British Journal of Cancer, 1995).
Values joined by “and” are separate entries in the source; they are usually repeats but may differ in a detail not shown here. Equal entries are not always repeated.

Experiments:
[1] = Toxicity and tolerability after oral or i.p. administration; format: in vivo, mice
Description: (§1) Britsh Journal of Cancer (1995) 72, 1462-1468 ft (32) 1995 Stockton Press All rights reserved 0007-0920/95 $12.00 Pharmacokinetics and binding of the bioreductive probe for hypoxia, NITP: effect of route of administration RJ Hodgkiss, MRL Stratford, MF Dennis and SA Hill Gray Laboratory Cancer Research Trust, P.O. Box 100, Mount Vernon Hospital, Northwood, Middlesex HA6 2JR, UK. Summary The novel compound 7-[4'-(2-nitroimidazol-l-yl)-butyl]-theophylline (NITP) can be used as an immunologically detectable probe for hypoxic cells. Because of the limited water solubility of NITP, it has been administered dissolved in peanut oil with 10% dimethylsulphoxide (DMSO). A new aqueous formulation has been devised, based on a 50% solution of a modified P-cyclodextrin (Molecusol HPB), which increases the water solubility of NITP 10-fold. […] Binding of the marker to hypoxic cells within tumours was also measured after the different routes of administration. […] The novel compound 7-[4'-(2-nitroimidazol-1-yl)-butyl]- theophylline (NITP), has been described as an immuno- logically detectable bioreductive probe for hypoxic cells (Hodgkiss et al., 1991), and appears to offer promise as a method of quantifying tumour hypoxia in vivo. […]

[2] = Solubility of NITP in water and in Molecusol HPB solution; format: physicochemical; details: Molecusol HPB solution vs water
Description: as §1

[3] = test system: CaNT tumours; assay: Bound adducts of NITP in cells from tumours, fluorescent immunochemical staining and flow cytometry; format: in vivo, CBA mice; details: for proportion of total cells in the region of bound NITP metabolites: control region 1%
Description: Britsh Journal of Cancer (1995) 72, 1462-1468 ft (32) 1995 Stockton Press All rights reserved 0007-0920/95 $12.00 Pharmacokinetics and binding of the bioreductive probe for hypoxia, NITP: effect of route of administration RJ Hodgkiss, MRL Stratford, MF Dennis and SA Hill Gray Laboratory Cancer Research Trust, P.O. Box 100, Mount Vernon Hospital, Northwood, Middlesex HA6 2JR, UK. Summary The novel compound 7-[4'-(2-nitroimidazol-l-yl)-butyl]-theophylline (NITP) can be used as an immunologically detectable probe for hypoxic cells. Because of the limited water solubility of NITP, it has been administered dissolved in peanut oil with 10% dimethylsulphoxide (DMSO). A new aqueous formulation has been devised, based on a 50% solution of a modified P-cyclodextrin (Molecusol HPB), which increases the water solubility of NITP 10-fold. The pharmacokinetics of NITP in plasma and tumours have been compared following oral and intraperitoneal (i.p.) administration of the NITP in Molecusol, i.p. administration of NITP dissolved in peanut oil + 10% DMSO and injection of a near-saturated aqueous solution of the drug intravenously via the tail vein or i.p. or directly into the tumours. Binding of the marker to hypoxic cells within tumours was also measured after the different routes of administration. The Molecusol vehicle was unexpectedly toxic when administered i.p., but there was no toxicity from NITP dissolved in Molecusol when administered orally. […] Binding of NITP within tumours has also been observed following direct injection of the drug, with minimal whole-body exposure to NITP. […] In particular, bioreductive drugs are specifically activated in hypoxic cells and can target those cells that are resistant to radiotherapy (for review see Stratford, 1992). Numerous methods have been proposed for measuring tumour hypoxia (for review see Hodgkiss and Wardman, 1992), in the hope that this would allow treatment to be optimised for individual patients on the basis of the oxygen status of their tumours. In particular, the hypoxia-specific binding of isotopically labelled 2-nitroimidazoles has been used to identify hypoxic cells in tumours, (e.g. Chapman et al., 1982; Franko and Chapman, 1982; Garrecht and Chap- man, 1983; Raleigh et al., 1985; Rasey et al., 1985; Urtasun et al., 1986). […] The novel compound 7-[4'-(2-nitroimidazol-1-yl)-butyl]- theophylline (NITP), has been described as an immuno- logically detectable bioreductive probe for hypoxic cells (Hodgkiss et al., 1991), and appears to offer promise as a method of quantifying tumour hypoxia in vivo. […]

[4] = Plasma and tumour pharmacokinetics of NITP by HPLC after different routes and vehicles; format: in vivo, CBA mice; details: for AUC s.e.m. Tumour: CaNT tumour
Description: Britsh Journal of Cancer (1995) 72, 1462-1468 ft (32) 1995 Stockton Press All rights reserved 0007-0920/95 $12.00 Pharmacokinetics and binding of the bioreductive probe for hypoxia, NITP: effect of route of administration RJ Hodgkiss, MRL Stratford, MF Dennis and SA Hill Gray Laboratory Cancer Research Trust, P.O. Box 100, Mount Vernon Hospital, Northwood, Middlesex HA6 2JR, UK. Summary The novel compound 7-[4'-(2-nitroimidazol-l-yl)-butyl]-theophylline (NITP) can be used as an immunologically detectable probe for hypoxic cells. Because of the limited water solubility of NITP, it has been administered dissolved in peanut oil with 10% dimethylsulphoxide (DMSO). A new aqueous formulation has been devised, based on a 50% solution of a modified P-cyclodextrin (Molecusol HPB), which increases the water solubility of NITP 10-fold. The pharmacokinetics of NITP in plasma and tumours have been compared following oral and intraperitoneal (i.p.) administration of the NITP in Molecusol, i.p. administration of NITP dissolved in peanut oil + 10% DMSO and injection of a near-saturated aqueous solution of the drug intravenously via the tail vein or i.p. or directly into the tumours. Binding of the marker to hypoxic cells within tumours was also measured after the different routes of administration. The Molecusol vehicle was unexpectedly toxic when administered i.p., but there was no toxicity from NITP dissolved in Molecusol when administered orally. […] Binding of NITP within tumours has also been observed following direct injection of the drug, with minimal whole-body exposure to NITP. […] In particular, bioreductive drugs are specifically activated in hypoxic cells and can target those cells that are resistant to radiotherapy (for review see Stratford, 1992). Numerous methods have been proposed for measuring tumour hypoxia (for review see Hodgkiss and Wardman, 1992), in the hope that this would allow treatment to be optimised for individual patients on the basis of the oxygen status of their tumours. In particular, the hypoxia-specific binding of isotopically labelled 2-nitroimidazoles has been used to identify hypoxic cells in tumours, (e.g. Chapman et al., 1982; Franko and Chapman, 1982; Garrecht and Chap- man, 1983; Raleigh et al., 1985; Rasey et al., 1985; Urtasun et al., 1986). Immunological detection of 2-nitroimidazoles has been described (Raleigh et al., 1987; Hodgkiss et al., 1991; Lord et al., 1993) and avoids the administration of radioactive labels, which would be particularly desirable for clinical measurement of tumour hypoxia. The novel compound 7-[4'-(2-nitroimidazol-1-yl)-butyl]- theophylline (NITP), has been described as an immuno- logically detectable bioreductive probe for hypoxic cells (Hodgkiss et al., 1991), and appears to offer promise as a method of quantifying tumour hypoxia in vivo. However, the water solubility of NITP is only c. 2 x 10^-3 M at 20'C and its administration in vivo, dissolved in water or saline, would require an inconveniently large volume of drug solution to be given to achieve an adequate dose level of c. 0.45 lsmol g-'. To circumvent this problem, NITP has been administered in vivo as a solution in peanut oil + 10% DMSO (Hodgkiss et al., 1991). While this formulation has given satisfactory results in the tumour models used, it is clearly unsuitable for clinical administration, and an aqueous preparation of the drug would be preferable. ,-Cyclodextrin consists of seven glucose units joined into a ring, taking up the shape of a three-dimensional torus with a hydrophobic cavity. 'Guest' molecules of a suitable size can fit into the central cavity, and the inclusion complex thus formed can increase the aqueous solubility of lipophilic com- pounds (Szejtli, 1982). […] This paper describes the use of a modified 2-hydroxy-propyl-p-cyclodextrin (Mole- cusol HPB) as an agent for preparing aqueous solutions of NITP. […]

[5] = 0.45 umol g-1 i.p. in peanut oil + 10% DMSO
[6] = 0.45 and 0.09 umol g-1 oral in Molecusol
[7] = Molecusol HPB i.p. 0.09 umol g-1
[8] = Molecusol HPB i.p. 0.45 umol g-1
[9] = Molecusol HPB oral 0.09 umol g-1
[10] = Molecusol HPB oral 0.45 umol g-1, pooled data for three experiments
[11] = Molecusol HPB oral (footnote a), dose printed 0
[12] = Peanut oil/DMSO i.p. 0.45 umol g-1
[13] = plasma, Molecusol HPB i.p. 0.09 umol g-1
[14] = plasma, Molecusol HPB i.p. 0.45 umol g-1
[15] = plasma, Molecusol HPB oral 0.09 umol g-1
[16] = plasma, Molecusol HPB oral 0.45 umol g-1, pooled data for three experiments
[17] = plasma, Molecusol HPB oral (footnote a), dose printed 0
[18] = plasma, Peanut oil/DMSO i.p. 0.45 umol g-1
[19] = plasma, Saline i.p. 0.015 umol g-1
[20] = plasma, Saline i.t. 0.006 umol g-1
[21] = saline i.v. 0.015 umol g-1, non-linear regression, biphasic curve

Compound: Cn1c(=O)c2c(ncn2CCCCn2ccnc2[N+](=O)[O-])n(C)c1=O [NITP, 7-[4'-(2-nitroimidazol-l-yl)-butyl]-theophylline]
- toxicity ([1]; NITP in Molecusol i.p., dose reduced by a factor of 5 (0.09 umol g-1)): no toxicity
- tolerability ([1]; oral, up to 0.9 umol g-1 NITP in Molecusol (20 umol g-1)): well tolerated with no obvious toxicity
- improvement in the solubility of NITP over that in water alone [2]: 10 fold and ~ 10 fold
- binding of NITP in tumours ([3]; direct injection of NITP saline solution into tumours): substantial binding
- binding of NITP in tumours ([3]; i.v. injection of 2 x 10^-3 M solution in saline): little binding
- proportion of total cells in the region of bound NITP metabolites ([3]; tumour excised 30 min after oral 0.09 umol g-1 NITP in Molecusol): 17%
- proportion of total cells in the region of bound NITP metabolites ([3]; tumour excised 90 min after oral 0.45 umol g-1 NITP in Molecusol): 19%
- peak plasma concentration relative to that predicted from a uniform distribution of the compound administered [4, 5]: about 20%
- time plasma remains at plateau level [4, 5]: about 50 min
- time to reach plasma plateau level [4, 5]: 10 to 15 min
- peak plasma level relative to that expected from a uniform distribution of the drug [4, 6]: about 20%
- plasma clearance half-life [4, 6]: 22 min
- AUC s.e.m. Tumour [4, 7]: 2.01 M min (x 103)
- AUC s.e.m. Tumour [4, 8]: 21.2 M min (x 103)
- AUC s.e.m. Tumour [4, 9]: 0.310 M min (x 103)
- AUC s.e.m. Tumour [4, 10]: 4.09 M min (x 103)
- AUC s.e.m. Tumour [4, 11]: 4.62 M min (x 103)
- AUC s.e.m. Tumour [4, 12]: 6.72 M min (x 103)
- AUC s.e.m. Tumour ([4]; Saline i.t. 0.006 umol g-1): 2.64 M min (x 103)
- AUC s.e.m. Plasma [4, 7]: 2.54 M min (x 103)
- AUC s.e.m. Plasma [4, 8]: 27.4 M min (x 103)
- AUC s.e.m. Plasma [4, 9]: 0.543 M min (x 103)
- AUC s.e.m. Plasma [4, 10]: 5.41 M min (x 103)
- AUC s.e.m. Plasma [4, 11]: 5.73 M min (x 103)
- AUC s.e.m. Plasma [4, 12]: 9.26 M min (x 103)
- AUC s.e.m. Plasma ([4]; Saline i.p. 0.015 umol g-1): 0.100 M min (x 103)
- AUC s.e.m. Plasma ([4]; Saline i.t. 0.006 umol g-1): 0.054 M min (x 103)
- AUC s.e.m. Plasma ([4]; Saline i.v. 0.005 umol g-1): 0.041 M min (x 103)
- AUC s.e.m. Plasma ([4]; Saline i.v. 0.015 umol g-1): 0.177 M min (x 103)
- Half life s.e.m. [4, 13]: 19.7 min
- Peak concentration + s.e.m. [4, 13]: 58.2 µM
- Half life s.e.m. [4, 14]: 36.6 min
- Peak concentration + s.e.m. [4, 14]: 401 µM
- Half life s.e.m. [4, 15]: 22.4 min
- Peak concentration + s.e.m. [4, 15]: 16.2 µM
- Half life s.e.m. [4, 16]: 26.5 min
- Peak concentration + s.e.m. [4, 16]: 104 µM
- Half life s.e.m. [4, 17]: 22.3 min
- Peak concentration + s.e.m. [4, 17]: 127 µM
- Half life s.e.m. [4, 18]: 33.1 min
- Peak concentration + s.e.m. [4, 18]: 96.3 µM
- Half life s.e.m. [4, 19]: 7.84 min
- Peak concentration + s.e.m. [4, 19]: 6.78 µM
- Half life s.e.m. [4, 20]: 9.79 min
- Peak concentration + s.e.m. [4, 20]: 3.68 µM
- Half life s.e.m. ([4]; plasma, Saline i.v. 0.005 umol g-1): 8.86 min
- Peak concentration ([4]; plasma, Saline i.v. 0.005 umol g-1, 1 min, n = 1): 4.06 µM
- Half life s.e.m. ([4]; plasma, Saline i.v. 0.015 umol g-1, linear fit to terminal elimination phase): 9.64 min
- volume of distribution ([4]; saline i.v. 0.015 umol g-1, non-linear regression data): 0.63 mL/g
- distribution phase half-life [4, 21]: 1.7 min
- elimination half-life [4, 21]: 9.2 min
- factor by which plasma concentrations lie below the tumour concentration ([4]; single i.t. injection of 0.1 ml 2 x 10^-3 M NITP): ≥ 20
